One assay has as its target T1, 11β-HSD1 (Homo sapiens, UniProt P28845).
T1 construct: hTNFα to induce expression of 11β-HSD1; endogenous in cells; host or cells: primary human aortic smooth muscle cells (AoSMC), induced with hTNFα
Briefly: Human aortic smooth muscle cell assay. Type of assay: cell-based. Particulars: primary human AoSMC, hTNFα-induced 11β-HSD1, cortisol formed from cortisone. As for the experimental part:
Human Aortic Smooth Muscle Cell Assay
Primary human aortic smooth muscle cells (AoSMC) are cultured in 5% FBS growth medium to a passage number of 6, then pelleted by centrifugation and resuspended at a density of 9×10^4 cells/mL in 0.5% FBS assay medium containing 12 ng/mL hTNFα to induce expression of 11β-HSD1. Cells are seeded into 96-well tissue culture assay plates at 100 μL/well (9×10^3 cells/well) and incubated for 48 hours at 37° C., 5% CO2. Following induction, cells are incubated for 4 hours at 37° C., 5% CO2 in assay medium containing test compounds then treated with 10 μL/well of 10 μM cortisone solubilized in assay medium, and incubated for 16 hours at 37° C., 5% CO2. Medium from each well is transferred to a plate for subsequent analysis of cortisol using a competitive fluorescence resonance time resolved immunoassay. […] Higher levels of free cortisol result in diminishing energy transfer from the Europium-IgG to the APC-cortisol complex resulting in less APC fluorescence. Fluorescent intensities for Europium and APC are measured using a LJL Analyst AD. Europium and APC […] is measured using 360 nm excitation and 615 nm and 650 nm emission filters respectively. […] Fluorescent intensities measured for APC are modified by dividing by the Eu fluorescence (APC/Eu). […]

Another assay concerns cortisone conversion. Kind of assay: Acute in vivo cortisone conversion assay. Particulars: male C57BL/6 mice, oral, cortisone challenge 16 hours post dose, serum cortisol. As for the experimental part: Acute In Vivo Cortisone Conversion Assay
In general, compounds are dosed orally into mice, the mice are challenged with a subcutaneous injection of cortisone at a set timepoint after compound injection, and the blood of each animal is collected some time later. Separated serum is then isolated and analyzed for levels of cortisone and cortisol by LC-MS/MS, followed by calculation of mean cortisol and percent inhibition of each dosing group. Specifically, male C57BL/6 mice are obtained from Harlan Sprague Dawley at average weight of 25 grams. Exact weights are taken upon arrival and the mice randomized into groups of similar weights. Compounds are prepared in 1% w-w HEC, 0.25% w-w polysorbate 80, 0.05% w-w Dow Corning antifoam #1510-US at various doses based on assumed average weight of 25 grams. Compounds are dosed orally, 200 μl per animal, followed by a subcutaneous dose, 200 μl per animal, of 30 mg/kg cortisone at 1 to 24 hours post compound dose. At 10 minutes post cortisone challenge, each animal is euthanized for 1 minute in a CO2 chamber, followed by blood collection via cardiac puncture into serum separator tubes. Once fully clotted, tubes are spun at 2500×g, 4° C. for 15 minutes, the serum transferred to wells of 96-well plates (Corning Inc, Costar #4410, cluster tubes, 1.2 ml, polypropylene), and the plates are frozen at −20° C. until analysis by LC-MS/MS. […]

T1 sequence (P28845 whole entry): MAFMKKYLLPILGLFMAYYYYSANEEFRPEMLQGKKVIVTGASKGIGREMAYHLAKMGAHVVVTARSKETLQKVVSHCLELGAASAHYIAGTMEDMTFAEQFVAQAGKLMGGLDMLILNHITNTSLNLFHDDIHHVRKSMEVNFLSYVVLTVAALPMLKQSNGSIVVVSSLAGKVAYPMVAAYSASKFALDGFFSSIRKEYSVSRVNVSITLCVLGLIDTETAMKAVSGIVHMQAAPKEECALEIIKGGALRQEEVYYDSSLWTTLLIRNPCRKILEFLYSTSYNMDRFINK

Compound `O=C(c1ccc(-c2cc(Cl)c(CN3CCC(C4CCCCC4)C3=O)c(Cl)c2)cc1)N1CCN(CCF)CC1` (racemic) [Example 5, 3-Cyclohexyl-1-{3,5-dichloro-4′-[4-(2-fluoro-ethyl)-piperazine-1-carbonyl]-biphenyl-4-ylmethyl}-pyrrolidin-2-one] returned an IC50 against 11β-HSD1 of 15.4 nM. For the same compound, in the assay on cortisone conversion (dose of 30 mg/kg), the “% Inhibition after 16 hours” value was 84 (dose of 30 (mg/kg)) %.
In turn, `O=C(c1ccc(-c2cc(Cl)c(CN3CCC(N4CCCCC4)C3=O)c(Cl)c2)cc1)N1CCC(C(F)(F)F)CC1` (racemic) [Example 16, 1-[3,5-Dichloro-4′-(4-trifluoromethyl-piperidine-1-carbonyl)-biphenyl-4-ylmethyl]-3-piperidin-1-yl-pyrrolidin-2-one] gave a 50% inhibitory concentration (IC50) at 11β-HSD1 of 294 nM. In addition, in the assay with cortisone conversion (dose of 10 mg/kg), the “% Inhibition after 16 hours” value is given as 38 (dose of 10 (mg/kg)) %.

A word on the IC50: it is the midpoint of a concentration-inhibition curve. A lower IC50 goes with higher potency.

Source of the values: patent US7994176B2, “Inhibitors of 11-beta-hydroxysteroid dehydrogenase 1” (Eli Lilly and Company, priority 2006, dated 2011).
